Measurements from PubChem BioAssay AID1963831 (Molecular Pharmacology Branch, DTP, NCI, 2024).
“And” between values parts separate entries of the source, which are not always exact repeats. Equal entries are not always repeated.

Test system: 889142-216-R-J1-PDC complex spheroid viability
Test: Anticancer human tumor 889142-216-R-J1-PDC patient-derived bladder carcinoma cell line growth inhibition [POLQ]
Settings: for viability, T/C: stronger effect = lower value
Experimental: Multicellular complex tumor spheroid response to Polymerase (POL) inhibitors (novobiocin, ART-558, RP6685) in combination with a variety of drugs and investigational agents in selected tumor cell lines
The POL inhibitors (novobiocin, ART-558, and RP6685) were evaluated both individually and in combination with standard of care and investigational anticancer small molecules within a complex spheroid model of solid tumors. . Complex spheroids include a stromal component modeled by human endothelial cells (HUVEC) and fibroblasts modeled by human mesenchymal stem cells (MSCs). The concentration ranges selected for each drug and investigational agent were based upon clinically achievable concentrations if the clinical Cmax of the agent was known.
Compounds. The drugs and investigational agents: novobiocin (NSC847541), ART-558 (NSC835418), RP-6685 (NSC848927), peposertib (NSC802822), ceralasertib (NSC780249), elimusertib (NSC800525), camonsertib (NSC841442), AZD-1390 (NSC803789), olaparib (NSC753686), talazoparib (NSC767125), rucaparib (NSC756644), sotorasib (NSC818433), MRTX-1133 (NSC836407), SN-38 (NSC673596), topotecan (NSC609699), epotoside (NSC141540), doxorubicin (NSC123127), gemcitabine (NSC613327), 5-fluorouracil (NSC19893), paclitaxel (NSC125973), vemurafenib (NSC761431), MSA-2 (NSC828583), SN-011 (NSC837082), adavosertib (NSC754352), prexasertib (NSC758257), carboplatin (NSC241240) and oxaliplatin (NSC266046), were obtained from the National Cancer Institute (NCI) Developmental Therapeutics Program Chemical Repository (21). The FDA-approved anticancer drug set is available from the Developmental Therapeutics Program at https://dtp.cancer.gov/organization/dscb/obtaining/. […] The stock solutions were prepared in dimethyl sulfoxide (DMSO, Sigma-Aldrich, St. Louis, MO, cat. D2650), except for the platinum compounds which were prepared in saline (Quality Biological, Gaithersburg, MD, cat. 114-055-101), at 800-fold the tested concentration and stored at -70 degrees C prior to their use. All drugs and investigational agents were tested over a range starting from a high concentration at or near the clinical Cmax and decreasing in half-log increments. If the clinical Cmax for an agent had not been determined, the highest concentration tested was 10 microM, except for SN-38, which was tested at a high concentration of 1 microM.
Cell Culture. All cells were maintained in an incubator at 37 degrees C and 5% CO2 with 95% humidity. The PDC lines were cultured according to standard operating procedures established by the NCI PDMR (https://pdmr.cancer.gov). Table 3 of the manuscript, lists the cell lines along with the number of the three cell types plated to form the mct-spheroids and media for tumor cell growth. After thawing, all PDC lines, except 997537-175-T-J1-PDC and 415267-285-R-J2-PDC, were cultured in Matrigel-coated flasks prepared with a working solution of 1X Ham's F-12 nutrient mix, without supplementation (Thermo Fisher Scientific, cat. 11765054), 100 U/mL penicillin-streptomycin (Thermo Fisher Scientific, cat. 15140122), and 2.5% Matrigel (Corning Inc., Corning, NY, cat. 354248) for the first three passages. The two PDC lines 997537-175-T-J1-PDC and 415267-285-R-J2-PDC were cultured on uncoated flasks. The 857933-349-R-J2-PDC line was cultured in 6C/Colon 1B media containing advanced DMEM/F-12 (Thermo Fisher Scientific, cat. 12634028), 10 mM HEPES (Thermo Fisher Scientific, cat. 15630080), 1X GlutaMAX supplement (Thermo Fisher Scientific, cat. 35050061), 0.1 mg/mL primocin (InvivoGen, San Diego, CA, cat. ant-pm-2), 10% defined fetal bovine serum, heat inactivated (HyClone Laboratories Inc., Logan, UT, cat. SH30070.03HI), 50% L-WRN conditioned media (ATCC, cat. CRL-3276), 1.25 mM N-Acetyl-L-cysteine (Sigma-Aldrich, cat. A9165), 10 mM nicotinamide (Sigma-Aldrich, cat. N0636), 1X B-27 supplement (Thermo Fisher Scientific, cat. 17504044), 1X N-2 supplement (Thermo Fisher Scientific, cat. […]
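Note: spheroids exposed to compounds for seven days.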
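Throughout, for viability, T/C: 100% = DMSO vehicle control viability.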

Which results are given for `CC(=O)O[C@H]1C(=O)[C@@]2(C)[C@H]([C@H](OC(=O)c3ccccc3)[C@]3(O)C[C@H](OC(=O)[C@H](O)[C@@H](NC(=O)c4ccccc4)c4ccccc4)C(C)=C1C3(C)C)[C@]1(OC(C)=O)CO[C@@H]1C[C@@H]2O` + Nc1ccc(C#CCN(C(=O)Cc2ncc(C(F)(F)F)cc2C(F)(F)F)c2ccc(F)cc2)nn1?
IC50 (curve of first compound, second compound 0.0316 µM): 72 nM; IC50 (curve of first compound, second compound 0.1 µM): 907 nM; IC50 (curve of first compound, second compound 0.316 µM): > 3000 nM; IC50 (curve of first compound, second compound 1 µM): 1330 nM; IC50 (curve of first compound, second compound 3.16 µM): < 9.49 nM; IC50 (curve of first compound, second compound 10 µM): > 3000 nM; viability, T/C (second compound 0.0316 µM, first compound 0.00949 µM): 53.5%; viability, T/C (second compound 0.0316 µM, first compound 0.03 µM): 45.8%; viability, T/C (second compound 0.0316 µM, first compound 0.0949 µM): 51.5%; viability, T/C (second compound 0.0316 µM, first compound 0.3 µM): 50.9%; viability, T/C (second compound 0.0316 µM, first compound 0.949 µM): 49.4%; viability, T/C (second compound 0.0316 µM, first compound 3 µM): 43.8%; viability, T/C (second compound 0.1 µM, first compound 0.00949 µM): 57.1%; viability, T/C (second compound 0.1 µM, first compound 0.03 µM): 41.5%; viability, T/C (second compound 0.1 µM, first compound 0.0949 µM): 54.6%; viability, T/C (second compound 0.1 µM, first compound 0.3 µM): 51.2%; viability, T/C (second compound 0.1 µM, first compound 0.949 µM): 53.1%; viability, T/C (second compound 0.1 µM, first compound 3 µM): 47.1%; viability, T/C (second compound 0.316 µM, first compound 0.00949 µM): 53%; viability, T/C (second compound 0.316 µM, first compound 0.03 µM): 57.2%; viability, T/C (second compound 0.316 µM, first compound 0.0949 µM): 46.3%; viability, T/C (second compound 0.316 µM, first compound 0.3 µM): 50.3%; viability, T/C (second compound 0.316 µM, first compound 0.949 µM): 61.7%; viability, T/C (second compound 0.316 µM, first compound 3 µM): 50.9%; viability, T/C (second compound 1 µM, first compound 0.00949 µM): 53.7%; viability, T/C (second compound 1 µM, first compound 0.03 µM): 51%; viability, T/C (second compound 1 µM, first compound 0.0949 µM): 52%; viability, T/C (second compound 1 µM, first compound 0.3 µM): 50.6%; viability, T/C (second compound 1 µM, first compound 0.949 µM): 51.8%; viability, T/C (second compound 1 µM, first compound 3 µM): 48.6%; viability, T/C (second compound 3.16 µM, first compound 0.00949 µM): 45.2%; viability, T/C (second compound 3.16 µM, first compound 0.03 µM): 54%; viability, T/C (second compound 3.16 µM, first compound 0.0949 µM): 51.3%; viability, T/C (second compound 3.16 µM, first compound 0.3 µM): 46.7%; viability, T/C (second compound 3.16 µM, first compound 0.949 µM): 53.3%; viability, T/C (second compound 3.16 µM, first compound 3 µM): 57.1%; viability, T/C (second compound 10 µM, first compound 0.00949 µM): 55%; viability, T/C (second compound 10 µM, first compound 0.03 µM): 52.2%; viability, T/C (second compound 10 µM, first compound 0.0949 µM): 55.5%; viability, T/C (second compound 10 µM, first compound 0.3 µM): 59.3%; viability, T/C (second compound 10 µM, first compound 0.949 µM): 59.9%; viability, T/C (second compound 10 µM, first compound 3 µM): 53.3%

How did the viability, T/C (compound 0.0316 µM) turn out when `C#Cc1c(F)ccc2cc(O)cc(-c3ncc4c(N5CC6CCC(C5)N6)nc(OCC56CCCN5CC(F)C6)nc4c3F)c12` (stereo not drawn) was run?
Its viability, T/C is 97.4% and 84.7% and 98.7%.

What about the viability, T/C (compound 0.1 µM) of the same molecule?
Its viability, T/C is 87.7% and 85.2% and 98.1%.

And the viability, T/C (compound 0.316 µM)?
Its viability, T/C is 79.3% and 79.1% and 79.6%.

What about the viability, T/C (compound 1 µM) of the same molecule?
The viability, T/C was 67.5% and 74.8% and 66.9%.

What about the viability, T/C (compound 3.16 µM) of the same molecule?
The viability, T/C was 80.7% and 73.1% and 71.4%.

What about the viability, T/C (compound 10 µM) of the same molecule?
The viability, T/C was 37.6% and 42.5% and 32%.

What about the IC50 (curve of compound) of the same molecule?
Its IC50 is 6760 nM and 7470 nM and 4990 nM.

What does the source list for `COc1cc(C2c3cc4c(cc3C(OC3OC5COC(C)OC5C(O)C3O)C3COC(=O)C23)OCO4)cc(OC)c1O` (stereo not drawn)?
viability, T/C (compound 0.0316 µM): 93.9% and 87.6% and 89.9%; viability, T/C (compound 0.1 µM): 82.4% and 88.4% and 76.9%; viability, T/C (compound 0.316 µM): 77.6% and 73% and 63.3%; viability, T/C (compound 1 µM): 58.1% and 80.3% and 53.2%; viability, T/C (compound 3.16 µM): 63.4% and 68.3% and 65.3%; viability, T/C (compound 10 µM): 54.3% and 62.4% and 58.1%; IC50 (curve of compound): > 10000 nM

For `C=CCn1c(=O)c2cnc(Nc3ccc(N4CCN(C)CC4)cc3)nc2n1-c1cccc(C(C)(C)O)n1`, which viability, T/C (compound 0.00316 µM) is on record?
The viability, T/C was 97.5% and 109% and 88.1%.

What about the viability, T/C (compound 0.01 µM) of the same molecule?
The viability, T/C was 87.6% and 92.1% and 104%.

And the viability, T/C (compound 0.0316 µM)?
Its viability, T/C is 97.2% and 110% and 104%.

What about the viability, T/C (compound 0.1 µM) of the same molecule?
The viability, T/C was 80.1% and 100% and 88.6%.

What about the viability, T/C (compound 0.316 µM) of the same molecule?
Its viability, T/C is 57.7% and 70.7% and 79.8%.

What about the viability, T/C (compound 1 µM) of the same molecule?
The viability, T/C was 54.2% and 67% and 62.5%.

And the IC50 (curve of compound)?
Its IC50 is > 1000 nM.

For `CC(=O)O[C@H]1C(=O)[C@@]2(C)[C@H]([C@H](OC(=O)c3ccccc3)[C@]3(O)C[C@H](OC(=O)[C@H](O)[C@@H](NC(=O)c4ccccc4)c4ccccc4)C(C)=C1C3(C)C)[C@]1(OC(C)=O)CO[C@@H]1C[C@@H]2O`, which viability, T/C (compound 0.00949 µM) is on record?
The viability, T/C was 51.9% and 53.3% and 40.6%.

What about the viability, T/C (compound 0.03 µM) of the same molecule?
Its viability, T/C is 51% and 60.1% and 33.6%.

What about the viability, T/C (compound 0.0949 µM) of the same molecule?
Its viability, T/C is 54.7% and 51.5% and 37.1%.

What about the viability, T/C (compound 0.3 µM) of the same molecule?
Its viability, T/C is 52.4% and 50.6% and 36.6%.

What about the viability, T/C (compound 0.949 µM) of the same molecule?
The viability, T/C was 43.7% and 49.6% and 35.6%.

What about the viability, T/C (compound 3 µM) of the same molecule?
Its viability, T/C is 49.5% and 56.1% and 39%.

`Nc1ccn(C2OC(CO)C(O)C2(F)F)c(=O)n1` (stereo not drawn) was tested. Which viability, T/C (compound 0.0316 µM) did it give?
Its viability, T/C is 62.2% and 68.3% and 56.9%.

What about the viability, T/C (compound 0.1 µM) of the same molecule?
Its viability, T/C is 47% and 40.3% and 54.1%.

And the viability, T/C (compound 0.316 µM)?
Its viability, T/C is 44.5% and 47.4% and 45%.

And the viability, T/C (compound 1 µM)?
Its viability, T/C is 44.4% and 48% and 49%.

And the viability, T/C (compound 3.16 µM)?
Its viability, T/C is 44.2% and 42.1% and 40.3%.

What about the viability, T/C (compound 10 µM) of the same molecule?
The viability, T/C was 37.1% and 38.8% and 31.7%.

What about the IC50 (curve of compound) of the same molecule?
Its IC50 is 86.1 nM and 73.7 nM and 318 nM.

`CC1COCCN1c1cc(-c2ccnn2C)c2ccnc(-c3ccn[nH]3)c2n1` (stereo not drawn) was tested. Which viability, T/C (compound 0.0316 µM) did it give?
Its viability, T/C is 69.8% and 79.1% and 76.9%.

What about the viability, T/C (compound 0.1 µM) of the same molecule?
Its viability, T/C is 54.8% and 52.9% and 67.8%.

What about the viability, T/C (compound 0.316 µM) of the same molecule?
Its viability, T/C is 47% and 40.5% and 47.4%.

And the viability, T/C (compound 1 µM)?
Its viability, T/C is 38.7% and 46.3% and 39.9%.

And the viability, T/C (compound 3.16 µM)?
Its viability, T/C is 32.2% and 36.3% and 36.2%.

And the viability, T/C (compound 10 µM)?
Its viability, T/C is 28.1% and 25% and 30.5%.

What about the IC50 (curve of compound) of the same molecule?
The IC50 was 206 nM and 182 nM and 308 nM.
